Laboratory results from US9796907B2, “Invert emulsion gravel pack fluid and method” (Halliburton Energy Services, Inc., priority 2013, dated 2017).

Test system: marine juvenile fish Cyprinodont varieties
Assay: Ecotoxicity to marine juvenile fish
Assay type: in vivo
Text: In addition, the fluid of the disclosure should have an acceptable health, safety, and environmental profile. The dimer diamine (or fatty acid dimer diamine) and polyurea components comprising the suspension agent are environmentally compatible.

CCCCCCCCCC(CCCCCCCCN)C(CCCCCCCC)CCCCCCCCCN (stereo not shown) [fatty acid dimer diamine, C36 fatty dimer diamine]
ecotoxicity to marine juvenile fish: low ecotoxicity
